Values of other authors in US4127533A, “Novel octapeptides, intermediates therefor, and compositions and methods employing said octapeptides” (priority 1977, dated 1978).

Legend:
[1] = system: rat; conditions: injected directly into the brain of the rat
[2] = system: brain opiate receptor sites

Q: For “H-Tyr-Gly-Gly-Phe-Met-OH [methionine enkephalin]”, which analgesic activity [1] is on record?
A: Its analgesic activity is “only weak analgesic agent of short duration”.

Q: And the “binding to partially purified brain opiate receptor sites” value [2]?
A: The value was “binds stereo-specifically”.
